Among the data in ChEMBL document CHEMBL1127654, “An epimer of 5'-noraristeromycin and its antiviral properties” (1994) are MIC50 values, retold here.

In brackets after ≈: the same amount, converted by molar mass.

The subject of test [1] is E6SM. Briefly: Minimal inhibitory concentration (MIC) required to reduce HSV(herpes simplex virus)-1 (KOS) cytopathicity in E6SM cells. The test is classed as functional. The note with it: Homo sapiens.
Test [2] has as its system E6SM. The experiment in a line: Minimal inhibitory concentration (MIC) required to reduce HSV(herpes simplex virus)-2 cytopathicity E6SM cells. The test is classed as functional. The note with it: Homo sapiens.
In test [3] the test system is E6SM. Briefly: Minimal inhibitory concentration (MIC) required to reduce TK(Thymidine kinase)-HSV-1 (B2006) cytopathicity in E6SM cells. The test is classed as functional. The note with it: Homo sapiens.
Test [4] deals with E6SM. Briefly: Minimal inhibitory concentration (MIC) required to reduce TK-HSV-1 (VMW 1837) cytopathicity in E6SM cells. Type of test: functional. The note with it: Homo sapiens.
In test [5] the test system is HEL. Briefly: Minimal inhibitory concentration (MIC) required to reduce CMV (Davis) in HEL cells. The test is classed as functional. The note with it: Homo sapiens.
Test [6] has as its system HEL. The experiment in a line: Minimal inhibitory concentration (MIC) required to reduce CMV (cytomegalo virus) (AD-169) in HEL cells. The test is classed as functional, Homo sapiens.
Test [7] relates to HEL. The experiment in a line: Minimal inhibitory concentration (MIC) required to reduce VZV (YS) in HEL cells. The test is classed as functional. The note with it: Homo sapiens.
Test [8] concerns HEL. The experiment in a line: Minimal inhibitory concentration (MIC) required to reduce VZV (varicella zoster virus) (OKA) in HEL cells. Type of test: functional. The note with it: Homo sapiens.
For test [9], the system named is HeLa. Briefly: Minimal inhibitory concentration (MIC) required to reduce Polio-1 in HeLa cells. The test is classed as functional. The note with it: Homo sapiens.
In test [10] the test system is Respiratory syncytial virus. Briefly: Minimal inhibitory concentration (MIC) required to reduce RSV (long) in HeLa cells. The test is classed as functional. The note with it: human respiratory syncytial virus.
Test [11] has as its system HeLa. The experiment in a line: Minimal inhibitory concentration (MIC) required to reduce VSV in HeLa cells. The note with it: Homo sapiens. Type of test: functional.
The subject of test [12] is HeLa. The experiment in a line: Minimal inhibitory concentration (MIC) required to reduce coxsackie B4 in HeLa cells. The test is classed as functional. The note with it: Homo sapiens.
The test system of test [13] is MDCK. The experiment in a line: Minimal inhibitory concentration (MIC) required to reduce Influenza A virus in MDCK cells. The test is classed as functional. The note with it: Canis lupus familiaris.
The test system of test [14] is MDCK. Briefly: Minimal inhibitory concentration (MIC) required to reduce Influenza B in MDCK cells. The note with it: Canis lupus familiaris. Type of test: functional.
The subject of test [15] is MT4. The experiment in a line: Minimal inhibitory concentration (MIC) required to reduce HIV(human immunodeficiency virus)-1 in MT-4 cells. The test is classed as functional.
Test [16] concerns MT4. The experiment in a line: Minimal inhibitory concentration (MIC) required to reduce HIV-2 in MT-4 cells. Type of test: functional. The note with it: Homo sapiens.
Test [17] deals with Vero. The experiment in a line: Minimal inhibitory concentration (MIC) required to reduce Junin virus in Vero cells. The test is classed as functional. The note with it: Chlorocebus sabaeus.
For test [18], the system named is Vero. Briefly: Minimal inhibitory concentration (MIC) required to reduce Parainfluenza-3 virus in Vero cells. Type of test: functional. The note with it: Chlorocebus sabaeus.
Test [19] concerns Vero. The experiment in a line: Minimal inhibitory concentration (MIC) required to reduce Reovirus-1 in Vero cells. The test is classed as functional. The note with it: Chlorocebus sabaeus.
Test [20] deals with Vero. The experiment in a line: Minimal inhibitory concentration (MIC) required to reduce forest virus in Vero cells. Type of test: functional. The note with it: Chlorocebus sabaeus.
Test [21] has as its system Vero. The experiment in a line: Minimal inhibitory concentration (MIC) required to reduce Sindbis in virus in Vero cells. Type of test: functional. The note with it: Chlorocebus sabaeus.
In test [22] the test system is Vero. The experiment in a line: Minimal inhibitory concentration (MIC) required to reduce Tacaribe virus in Vero cells. The note with it: Chlorocebus sabaeus. Type of test: functional.
Test [23] concerns E6SM. The experiment in a line: cells. The note with it: Homo sapiens.
For test [24], the system named is E6SM. Briefly: cells. The note with it: Homo sapiens. This is another data set of the same source.
Test [25] has as its system MDCK. The experiment in a line: Minimal inhibitory concentration (MIC) required to reduce Influenza B virus in MDCK cells. The test is classed as functional. The note with it: Canis lupus familiaris.

Consider `Nc1ncnc2c1ncn2[C@@H]1C[C@@H](O)[C@@H](O)[C@H]1O`, for which the MIC50 in test [1] was over 300 mg/L; in test [2] it was 300 mg/L (≈ 1190 µM); in test [3], 200 mg/L (≈ 796 µM); in test [4] it was 200 mg/L (≈ 796 µM); in [5] it was 3 mg/L (≈ 11.9 µM); in [6] (Homo sapiens, read-out: MIC50) it was 5 mg/L (≈ 19.9 µM). Moreover, the MIC50 was 1 mg/L (≈ 3.98 µM) in test [7]; 6 mg/L (≈ 23.9 µM) in test [8]; over 400 mg/L in test [9]; 100 mg/L (≈ 398 µM) in test [10]; over 0.2 mg/L in test [11]; over 400 mg/L in test [12]. The MIC50 is over 200 mg/L in test [13]; over 200 mg/L in [14]; over 0.8 mg/L in test [15]; over 0.8 mg/L in [16]; 30 mg/L (≈ 119 µM) in [17]; 0.04 mg/L (≈ 0.159 µM) in test [18]. Moreover, the MIC50 in test [19] was 0.3 mg/L (≈ 1.19 µM); in [20], over 200 mg/L; in [21], over 200 mg/L; in [22], 27 mg/L (≈ 107 µM); in [23], 0.1 mg/L (≈ 0.398 µM); in [24] it was 0.2 mg/L (≈ 0.796 µM).
In the case of `Nc1nccc2c1ncn2[C@@H]1C[C@H](CO)[C@@H](O)[C@H]1O` [3-DEAZAARISTEROMYCIN A], the MIC50 is over 400 mg/L in test [1]; over 400 mg/L in [2]; over 400 mg/L in test [3]; over 400 mg/L in test [4]; 7 mg/L (≈ 26.5 µM) in [6]; over 7 mg/L in test [6] (Homo sapiens, read-out: MIC50). For the same molecule, the MIC50 in test [7] is over 40 mg/L; in [8], over 40 mg/L; in test [9], over 400 mg/L; in test [10] it was 100 mg/L (≈ 378 µM); in [11], over 7 mg/L; in test [12], over 400 mg/L. Moreover, the MIC50 was over 100 mg/L in test [13]; over 30 mg/L in test [25]; 7 mg/L (≈ 26.5 µM) in test [17]; over 1 mg/L in test [18]; 2 mg/L (≈ 7.57 µM) in test [19]; over 400 mg/L in [20]. The MIC50 is 4 mg/L (≈ 15.1 µM) in [21], 7 mg/L (≈ 26.5 µM) in test [22], 1 mg/L (≈ 3.78 µM) in test [23] and 1 mg/L (≈ 3.78 µM) in test [24].
For the molecule `Nc1ncnc2c1ncn2[C@@H]1C=C(CO)[C@@H](O)[C@H]1O` [NEOPLANOCIN A], the MIC50 in test [1] was 70 mg/L (≈ 266 µM); in test [2], over 100 mg/L; in [3], 20 mg/L (≈ 76 µM); in test [4], 70 mg/L (≈ 266 µM); in [6] it was 0.4 mg/L (≈ 1.52 µM); in [6] (Homo sapiens, read-out: MIC50), 0.6 mg/L (≈ 2.28 µM). Further, the MIC50 in test [7] is 1 mg/L (≈ 3.8 µM); in test [8], 6 mg/L (≈ 22.8 µM); in [9], over 40 mg/L; in [10] it was over 1 mg/L; in test [11], 2 mg/L (≈ 7.6 µM); in test [12], over 40 mg/L. The MIC50 in test [13] was 1 mg/L (≈ 3.8 µM); in [25], over 3 mg/L; in test [17] it was 1 mg/L (≈ 3.8 µM); in test [18] it was 0.2 mg/L (≈ 0.76 µM); in test [19], 0.7 mg/L (≈ 2.66 µM); in test [20], 7 mg/L (≈ 26.6 µM). Further, the MIC50 came out at 2 mg/L (≈ 7.6 µM) in test [21], 1 mg/L (≈ 3.8 µM) in test [22], 0.2 mg/L (≈ 0.76 µM) in test [23] and 2 mg/L (≈ 7.6 µM) in test [24].
